Assay results published in patent publication US20260274814A1, “THIENYL COMPOUNDS FOR THE TREATMENT OF A CENTRAL NERVOUS SYSTEM DISEASE OR DISORDER” (Coreterra Therapeutics, Inc., priority 2023, published 2026).
Where a name gives a salt, the structure may show the parent alone. Read-outs that look alike come from different tables or passages of the source.

Tested on: mice
Experiment: Neuropharmacological Assay (SmartCube): automated behavioral signature of compound-treated mice compared with a database of reference drug classes
Type: in vivo
Conditions: for minimal effective dose: Mus musculus, ip, i.p., that dose is shown; for AD / AG / AN / AP / AX / CE / HL / MS / PS / SH / UK: 3.0 mg/kg i.p., 15 min before test
Procedure, shortened: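 Mice dosed i.p. 15 min before SmartCube testing, with compound in N-methyl-2-pyrrolidone/polyethylene glycol/propylene glycol. Video-captured behaviour is compared with a reference-drug signature database to give per-class probabilities, reported at 3.0 mg/kg. MED, from doses usually 0.3–10 mg/kg, is the lowest dose giving ≥45% total activity.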

[1] = dose having 45% or more total activity in SmartCube, if only one dose was tested, read-out: MED (minimal effective dose)
[2] = probability that activity matches this class of agents
[3] = minimal effective dose: dose having 45% or more total activity in SmartCube, if only one dose tested, read-out: MED

Structure (SMILES)	minimal effective dose [1]	AD [2]	AG [2]	AN [2]	AP [2]	AX [2]	CE [2]	HL [2]	MS [2]	PS [2]	SH [2]	UK [2]	minimal effective dose [3]	AD (SmartCube class probability)	AG (SmartCube class probability)	AN (SmartCube class probability)	AP (SmartCube class probability)	AX (SmartCube class probability)	CE (SmartCube class probability)	HL (SmartCube class probability)	other results
CNC1CCc2c(sc(Cl)c2C)C1 (stereo not drawn) [Compound 92, 2-chloro-N, 3-dimethyl-4,5,6,7-tetrahydrobenzothiophen-6-amine hydrochloride]	3 mg/kg	++++ (≥74%)	ND (^ <4%)	ND (^ <4%)	ND (^ <4%)	ND (^ <4%)	ND (^ <4%)	ND (^ <4%)	ND (^ <4%)	ND (^ <4%)	ND (^ <4%)	ND (^ <4%)	–	–	–	–	–	–	–	–	–
CNC1CCc2csc(C#N)c2C1 (stereo not drawn) [Compound 93, 6-(methylamino)-4,5,6,7-tetrahydro-2-benzothiophene-1-carbonitrile hydrochloride]	0.1 mg/kg	ND (^ <4%)	ND (^ <4%)	ND (^ <4%)	++++ (≥74%)	ND (^ <4%)	ND (^ <4%)	ND (^ <4%)	ND (^ <4%)	ND (^ <4%)	ND (^ <4%)	ND (^ <4%)	–	–	–	–	–	–	–	–	–
CNC1CCc2c(Cl)csc2C1 (stereo not drawn) [Compound 94, 3-chloro-N-methyl-4,5,6,7-tetrahydrobenzothiophen-6-amine hydrochloride]	3 mg/kg	ND (^ <4%)	ND (^ <4%)	ND (^ <4%)	++++ (≥74%)	ND (^ <4%)	ND (^ <4%)	ND (^ <4%)	ND (^ <4%)	ND (^ <4%)	ND (^ <4%)	ND (^ <4%)	–	–	–	–	–	–	–	–	–
CNC1CCc2csc(C3CC3)c2C1 (stereo not drawn) [Compound 95, 3-cyclopropyl-N-methyl-4,5,6,7-tetrahydro-2-benzothiophen-5-amine hydrochloride]	1 mg/kg	+++ (≥49%)	ND (^ <4%)	ND (^ <4%)	++ (≥24%)	ND (^ <4%)	ND (^ <4%)	ND (^ <4%)	ND (^ <4%)	ND (^ <4%)	ND (^ <4%)	ND (^ <4%)	–	–	–	–	–	–	–	–	–
CNC1CCc2cc(Cl)sc2C1 (stereo not drawn) [Compound 96, 2-chloro-N-methyl-4,5,6,7-tetrahydrobenzothiophen-6-amine hydrochloride]	3 mg/kg	ND (^ <4%)	ND (^ <4%)	ND (^ <4%)	+++ (≥49%)	ND (^ <4%)	ND (^ <4%)	ND (^ <4%)	ND (^ <4%)	ND (^ <4%)	ND (^ <4%)	ND (^ <4%)	–	–	–	–	–	–	–	–	–
CNC1CCc2sc(Cl)cc2C1 (stereo not drawn) [Compound 97, 2-chloro-N-methyl-4,5,6,7-tetrahydrobenzothiophen-5-amine hydrochloride]	1 mg/kg	++++ (≥74%)	ND (^ <4%)	ND (^ <4%)	ND (^ <4%)	ND (^ <4%)	ND (^ <4%)	ND (^ <4%)	ND (^ <4%)	ND (^ <4%)	ND (^ <4%)	ND (^ <4%)	–	–	–	–	–	–	–	–	–
CNC1CCc2c(F)sc(C)c2C1 (stereo not drawn) [Compound 100, 1-fluoro-N, 3-dimethyl-4,5,6,7-tetrahydro-2-benzothiophen-5-amine hydrochloride]	1 mg/kg	ND (^ <4%)	ND (^ <4%)	ND (^ <4%)	++++ (≥74%)	ND (^ <4%)	ND (^ <4%)	ND (^ <4%)	ND (^ <4%)	ND (^ <4%)	ND (^ <4%)	ND (^ <4%)	–	–	–	–	–	–	–	–	–
CNC1CCc2scc(Br)c2C1 (stereo not drawn) [Compound 108, 3-bromo-N-methyl-4,5,6,7-tetrahydrobenzothiophen-5-amine hydrochloride]	< 3 mg/kg	ND (^ <4%)	ND (^ <4%)	ND (^ <4%)	++++ (≥74%)	ND (^ <4%)	ND (^ <4%)	ND (^ <4%)	ND (^ <4%)	ND (^ <4%)	ND (^ <4%)	ND (^ <4%)	–	–	–	–	–	–	–	–	–
CNC1(C)CCc2c(F)csc2C1 (stereo not drawn) [Compound 109, 3-fluoro-N, 6-dimethyl-5,7-dihydro-4H-benzothiophen-6-amine hydrochloride]	< 3 mg/kg	++++ (≥74%)	ND (^ <4%)	ND (^ <4%)	ND (^ <4%)	ND (^ <4%)	ND (^ <4%)	ND (^ <4%)	ND (^ <4%)	ND (^ <4%)	ND (^ <4%)	ND (^ <4%)	–	–	–	–	–	–	–	–	–
CNC1COc2cc(F)sc2C1 (stereo not drawn) [Compound 130, 2-fluoro-N-methyl-6,7-dihydro-5H-thieno[3,2-b]pyran-6-amine hydrochloride]	< 3 mg/kg	ND (^ <4%)	ND (^ <4%)	ND (^ <4%)	++++ (≥74%)	ND (^ <4%)	ND (^ <4%)	ND (^ <4%)	ND (^ <4%)	ND (^ <4%)	ND (^ <4%)	ND (^ <4%)	–	–	–	–	–	–	–	–	–
CNC1COc2csc(C#N)c2C1 (stereo not drawn) [Compound 139, 3-(methylamino)-3,4-dihydro-2H-thieno[3,4-b]pyran-5-carbonitrile hydrochloride]	0.3 mg/kg	++ (≥24%)	ND (^ <4%)	ND (^ <4%)	ND (^ <4%)	ND (^ <4%)	ND (^ <4%)	ND (^ <4%)	ND (^ <4%)	ND (^ <4%)	ND (^ <4%)	++ (≥24%)	–	–	–	–	–	–	–	–	–
CNC1CCc2scc(C(F)(F)F)c2C1 (stereo not drawn) [Compound 140, N-methyl-3-(trifluoromethyl)-4,5,6,7-tetrahydrobenzothiophen-5-amine hydrochloride]	–	–	–	–	–	–	–	–	–	–	–	–	3 mg/kg	ND (^ <4%)	ND (^ <4%)	ND (^ <4%)	+ (≥4%)	ND (^ <4%)	ND (^ <4%)	ND (^ <4%)	MS (SmartCube class probability): ND (^ <4%); PS (SmartCube class probability): ND (^ <4%); SH (SmartCube class probability): ND (^ <4%); UK (SmartCube class probability): +++ (≥49%)
CNC1(C)CCc2csc(C(F)(F)F)c2C1 (stereo not drawn) [Compound 141, N, 5-dimethyl-3-(trifluoromethyl)-6,7-dihydro-4H-2-benzothiophen-5-amine hydrochloride]	–	–	–	–	–	–	–	–	–	–	–	–	3 mg/kg	+ (≥4%)	ND (^ <4%)	ND (^ <4%)	ND (^ <4%)	+++ (≥49%)	ND (^ <4%)	ND (^ <4%)	MS (SmartCube class probability): ND (^ <4%); PS (SmartCube class probability): ND (^ <4%); SH (SmartCube class probability): ND (^ <4%); UK (SmartCube class probability): ND (^ <4%)
CNC1CCc2sc(F)c(C)c2C1 (stereo not drawn) [Compound 142, 2-fluoro-N, 3-dimethyl-4,5,6,7-tetrahydrobenzothiophen-5-amine hydrochloride]	–	–	–	–	–	–	–	–	–	–	–	–	1 mg/kg	+ (≥4%)	ND (^ <4%)	++ (≥24%)	+ (≥4%)	ND (^ <4%)	ND (^ <4%)	ND (^ <4%)	MS (SmartCube class probability): ND (^ <4%); PS (SmartCube class probability): + (≥4%); SH (SmartCube class probability): ND (^ <4%); UK (SmartCube class probability): + (≥4%)
CNC1COc2csc(C(F)(F)F)c2C1 (stereo not drawn) [Compound 153, N-methyl-5-(trifluoromethyl)-3,4-dihydro-2H-thieno[3,4-b]pyran-3-amine hydrochloride]	–	–	–	–	–	–	–	–	–	–	–	–	3 mg/kg	++++ (≥74%)	ND (^ <4%)	ND (^ <4%)	ND (^ <4%)	ND (^ <4%)	ND (^ <4%)	ND (^ <4%)	MS (SmartCube class probability): ND (^ <4%); PS (SmartCube class probability): ND (^ <4%); SH (SmartCube class probability): ND (^ <4%); UK (SmartCube class probability): ND (^ <4%)
CNC1CC=Cc2cscc2C1 (stereo not drawn) [Compound 168, N-methyl-5,6-dihydro-4H-cyclohepta[c]thiophen-5-amine hydrochloride]	–	–	–	–	–	–	–	–	–	–	–	–	3 mg/kg	ND (^ <4%)	ND (^ <4%)	ND (^ <4%)	+++ (≥49%)	ND (^ <4%)	ND (^ <4%)	ND (^ <4%)	MS (SmartCube class probability): ND (^ <4%); PS (SmartCube class probability): ND (^ <4%); SH (SmartCube class probability): ND (^ <4%); UK (SmartCube class probability): ND (^ <4%)
CNC1CCc2sc(C(F)(F)F)cc2C1 (stereo not drawn) [Compound 173, N-methyl-2-(trifluoromethyl)-4,5,6,7-tetrahydrobenzothiophen-5-amine hydrochloride]	–	–	–	–	–	–	–	–	–	–	–	–	> 3 mg/kg	ND (^ <4%)	ND (^ <4%)	ND (^ <4%)	ND (^ <4%)	ND (^ <4%)	ND (^ <4%)	ND (^ <4%)	MS (SmartCube class probability): ND (^ <4%); PS (SmartCube class probability): ND (^ <4%); SH (SmartCube class probability): ND (^ <4%); UK (SmartCube class probability): ++ (≥24%)
